Several values for one entry are separate records, joined by “and”; a condition that tells them apart may be missing. Equal values may be shown once.
How the values were obtained:
Aβ(1-40) [1] = target: T1, Aβ(1-40) (Homo sapiens, UniProt P05067); experiment: BASSR (Beta-Amyloid Self-Seeding Radioassay), inhibitors of self-seeded amyloid fibril growth; assay type: biochemical; settings: 30 μM soluble Aβ(1-40) + 125I-labeled Aβ(1-40), 37° C., 3 to 5 hours; replicate values; letter = synthetic lot; ppt = precipitate; V-shaped = inhibition followed by precipitation
T1 construct: […]; purchased Bachem, Torrance, Calif
T1 sequence (P05067 672-711 limits assumed): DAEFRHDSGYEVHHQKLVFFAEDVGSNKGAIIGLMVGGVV
How it was run: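 Self-seeded growth of ^125I-labeled Aβ(1-40) fibrils in 50 mM sodium phosphate pH 7.5, 100 mM NaCl, 0.02% NaN3, 1 M urea; compound (3-fold dilutions from 100 μM final) preincubated 10 min on ice, then 3–5 h at 37° C. Fibrils collected by vacuum filtration on 0.2 μm filters and counted for radioactivity.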

Aβ(1-40) [2] = target: T1, Aβ(1-40); experiment: BASST (Beta-Amyloid Self-Seeding, Thioflavin T), inhibitors of self-seeded amyloid fibril growth; assay type: biochemical; settings: 30 μM soluble Aβ(1-40), 37° C., 3 to 5 hours, thioflavin T fluorescence; replicate values; letter = synthetic lot; read-out: BASST (IC50 = μM)
How it was run: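 Self-seeded Aβ(1-40) fibril growth was run in 50 mM sodium phosphate pH 7.5, 100 mM NaCl, 0.02% NaN3, 1 M urea. Compounds were tested in 3-fold serial dilutions (top 100 μM final): 10 min on ice, then 3–5 h at 37 °C. Fibrils were read by 5 μM thioflavin T fluorescence (ex 440/em 485 nm).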

Aβ (1-40) peptide = target: T2, Aβ (1-40) peptide (Homo sapiens, UniProt P05067); experiment: BAPA (Beta-Amyloid Peptide Aggregation, pH 6.0, filtration); assay type: biochemical; settings: Aβ (1-40) 33 μM, pH 6.0, 2 to 4 hours at room temperature; replicate values; letter = synthetic lot
T2 construct: 10 μL 0.5 mg/mL Aβ (1-40) peptide in 20% HFIP
T2 sequence (P05067 672-711 limits assumed): as above
How it was run: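 Aggregation of human Aβ (1-40) peptide was measured in an endpoint filtration assay. The peptide was first reduced to monomer with hexafluoroisopropanol (HFIP), then used at 33 μM so it would aggregate at pH 6.0, and incubated for 2 to 4 hours at room temperature. Filter plates were washed with 100 μL phosphate buffer, impregnated with Meltilex, and counted on a Microbeta counter with background correction.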

Aβ (1-42) = target: T3, Aβ (1-42) (Homo sapiens, UniProt P05067); experiment: BATYM assay (Aβ (1-42) aggregation, Thioflavin T fluorescence); assay type: biochemical; settings: Aβ 1-42 final concentration 100 μM, 37° C., 1 day, letter = synthetic lot
T3 construct: Required Aβ (1-42) (California Peptide) was dried from its hexafluoroisopropanol (HFIP) stock solution; purchased California Peptide
T3 sequence (P05067 672-713 limits assumed): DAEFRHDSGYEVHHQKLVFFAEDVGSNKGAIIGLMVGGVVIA
How it was run: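 Aβ (1-42) (100 μM final, PBS pH 7.4 from DMSO) incubated with compound at 37° C. for 1 day. Aggregation read by ThT (30 μM, glycine-NaOH pH 8.5) fluorescence, ex 440/em 485 nm; inhibition as fluorescence reduction corrected for compound-alone signal, IC50 by curve fitting from two experiments in triplicate.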

IC50 (Aβ(1-40) [1])	IC50 (Aβ(1-40) [2])	IC50 (Aβ (1-40) peptide) [µM]	IC50 (Aβ (1-42))	melting point [°C]	SMILES
4.5 µM and 5 µM (3×) and 15 µM	2 µM and 3 µM	> 60	11.7 µM	208 to 209	COc1cc(Nc2ccc(CCc3ccc(Cl)c(Cl)c3)cc2)c(C(=O)O)cc1[N+](=O)[O-] [Example 3, 2-{4-[4-(3,4-Dichloro-phenyl)-ethyl]phenylamino}-4-methoxy-5-nitrobenzoic acid]
30 µM and > 100 µM	3 µM and 4 µM and 8 µM	67	26.3 µM and 30.7 µM	215 to 217	O=C(O)c1ccccc1Nc1ccc(CCc2ccc(O)c(O)c2)cc1 [Example 4, 2-{4-[2-(3,4-Dihydroxy-phenyl)-ethyl]-phenylamino}benzoic acid]
70 µM and > 100 µM	4.5 µM	74	10 µM	115 to 117	CCCCN(CCCC)c1ccc(CCc2ccc(Nc3ccccc3C(=O)O)cc2)cc1 [Example 5, 2-{4-[2-(4-Dibutylamino-phenyl)-ethyl]phenylamino}benzoic acid]
20 µM and 30 µM and 52 µM and 40 µM	1 µM and 2 µM	75	20.1 µM and 28.2 µM and 38.6 µM	120 to 126	O=C(O)c1ccccc1Nc1ccc(CCCc2ccc(Cl)c(Cl)c2)cc1 [Example 9, 2-{4-[3-(3,4-Dichlorophenyl)-propyl]phenylamino}-benzoic acid]
> 100 µM		154	> 100 µM	224	CC(=O)Nc1ccc(CCc2ccc(Nc3ccccc3C(=O)O)cc2)cc1 [Example 35, 2-{4-[2-(4-Acetylaminophenyl)ethyl]phenylamino}benzoic acid]
> 100 µM	> 100 µM		> 100 µM	236 to 239	O=C(O)c1ccc(CCCc2ccc(Nc3ccccc3C(=O)O)cc2)cc1 [Example 49, 2-{4-[3-(4-Carboxyphenyl)propyl]phenylamino}benzoic acid]
> 100 µM	> 100 µM		> 100 µM	137	CCN(CC)Cc1ccc(CCCc2ccc(Nc3ccccc3C(=O)O)cc2)cc1 [Example 50, 2-{4-[3-(4-Diethylaminomethylphenyl)propyl]phenylamino}benzoic acid]
> 100 µM	0.3 µM		30 µM	171 to 177	O=C(O)c1ccccc1Nc1ccc(CCCc2ccc(N3CCCC3)cc2)cc1 [Example 53, 2-{4-[3-(4-Pyrrolidin-1-yl-phenyl)-propyl]-phenylamino}-benzoic acid]
> 100 µM	0.4 µM		43.9 µM	59 to 61	O=C(O)c1ccccc1Nc1ccc(CCCc2cccc(N3CCCCC3)c2)cc1 [Example 54, 2-{4-[3-(3-Piperidin-1yl-phenyl)-propyl]-phenylamino}-benzoic acid]
4.8 µM	1.5 µM		4 µM	214 to 215	CCCCN1CCCc2cc(C=C3SC(=S)N(CCC(=O)O)C3=O)ccc21 [Example 57, 3-{5-[(1-Butyl-1,2,3,4-tetrahydroquinolin-6-yl)methylidene]-4-oxo-2-thioxo-thiazolidin-3-yl)propanoic acid]
3.5 µM	1 µM		5.1 µM	152 to 154	CCCCN1CCCc2cc(C=C3SC(=S)N(CCCC(=O)O)C3=O)ccc21 [Example 58, 4-{5-[(1-Butyl-1,2,3,4-tetrahydroquinolin-6-yl)methylidene]-4oxo-2-thioxo-thiazolidin-3-yl)butanoic acid]
> 100 µM	1.5 µM		8.98 µM	239 to 244	O=C(O)c1cc([N+](=O)[O-])ccc1Nc1ccc(CCc2ccc(-c3ccccc3)cc2)cc1 [Example 62, 2-[4-(2-Biphenyl-4-yl-ethyl)phenylamino]-5-nitro-benzoic acid]
> 100 µM	3 µM	> 60		180 to 182	O=C(O)c1cc(F)ccc1Nc1ccc(CCc2ccc(Cl)c(Cl)c2)cc1 [Example 71, 2-{4-[2-(3,4-Dichloro-phenyl)-ethyl]-phenylamino}-5-fluoro-benzoic acid]
18 µM and 15 µM		> 60	9.49 µM	200.5 to 202.5	O=C(O)c1cc([N+](=O)[O-])ccc1Nc1ccc(CCc2ccc(Cl)cc2Cl)cc1 [Example 77, 2-{4-[2-(2,4-Dichloro-phenyl)-ethyl]-phenylamino}-5-nitro-benzoic acid]
	1 µM and 300 nM (3×)	51	9.14 µM	> 260	CCCCN(CCCC)c1ccc(CCc2ccc(Nc3ccc([N+](=O)[O-])cc3C(=O)O)cc2)cc1 [Example 79, 2-{4-[2-(4-Dibutylamino-phenyl)-ethyl]-phenylamino}-5-nitro-benzoic acid]
> 100 µM	18 µM and 30 µM	96		159 to 161	COc1ccc(CCc2ccc(Nc3ccccc3C(=O)O)cc2)cc1OC [Example 116, 2-{4-[2-(3,4-Dimethoxy-phenyl)-ethyl]-phenylamino}-benzoic acid]
		> 60	70.8 µM and 85.2 µM	155 to 157	O=C(O)c1ccccc1Nc1cccc(CCc2ccc(Cl)cc2)c1 [Example 123, 2-{3-[2-(4-Chloro-phenyl)-ethyl]-phenylamino}-benzoic acid]
> 100 µM	10 µM		62.7 µM	182 to 184	Cc1ccc(CCc2cccc(Nc3ccccc3C(=O)O)c2)cc1C [Example 124, 2-{3-[2-(3,4-Dimethyl-phenyl)-ethyl]-phenylamino}-benzoic acid]
		> 60	75 µM and > 60 µM	152 to 154	O=C(O)c1ccccc1Nc1ccc(CCc2cccc(Cl)c2)cc1 [Example 128, 2-{4-[2-(3-Chloro-phenyl)-ethyl]-phenylamino}-benzoic acid]
	10 µM and 3 µM and 2 µM (2×)	> 102	> 100 µM	200 to 202	O=C(O)c1ccccc1Nc1ccc(CCc2ccc(-c3ccccc3)cc2)cc1 [Example 129, 2-[4-(2-Biphenyl-4-yl-ethyl)-phenylamino]-benzoic acid]
> 100 µM		238	47.5 µM	181 to 183	O=C(O)c1ccccc1Nc1ccc(CCc2ccc(Cl)cc2Cl)cc1 [Example 130, 2-{4-[2-(2,4-Dichloro-phenyl)-ethyl]-phenylamino}-benzoic acid]
> 100 µM	10 µM		> 100 µM	214 to 215	O=C(O)c1ccc(Nc2ccc(CCc3ccc(Cl)c(Cl)c3)cc2)cc1 [Example 132, 4-{4-[2-(3,4-Dichloro-phenyl)-ethyl]-phenylamino}-benzoic acid]
> 100 µM	3 µM	52		> 220	O=C(O)c1ccccc1Nc1ccc(-c2cc(Cl)cc(Cl)c2)cc1 [Example 137, 2-(3′,5′-Dichloro-biphenyl-4-ylamino)-benzoic acid]
> 100 µM		108	> 100 µM	106 to 110	CCN(CC)c1ccc(Nc2ccc(CCc3ccc(Cl)c(Cl)c3)cc2)c(C(=O)O)c1 [Example 151, 2-{4-[2-(3,4-Dichloro-phenyl)-ethyl]-phenylamino}-5-diethylamino-benzoic acid]

SMILES	IC50 (Aβ(1-40) [1])	IC50 (Aβ(1-40) [2])	IC50 (Aβ (1-40) peptide) [µM]	IC50 (Aβ (1-42))	melting point [°C]
O=C(O)c1cc([N+](=O)[O-])ccc1Nc1ccc(CCc2ccc(Cl)c(Cl)c2)cc1 [Example 2, 2-{4-[2-(3,4-Dichloro-phenyl)-ethyl]phenylamino}-5-nitrobenzoic acid]	2.2 µM and 4.1 µM (2×) and 12 µM and 4.5 µM	1 µM and 1.5 µM	70	6.52 µM	214 to 217
Cc1ccc(CCc2ccc(Nc3ccc([N+](=O)[O-])cc3C(=O)O)cc2)cc1C [Example 16, 2-{4-[2-(3,4-Dimethyl-phenyl)-ethyl]phenylamino}-5-nitrobenzoic acid]		3 µM (2×) and 1.1 µM and 800 nM and 600 nM	13	12 µM and 10.3 µM	214 to 216

From US6972287B1, “Method of inhibiting amyloid protein aggregation and imaging amyloid deposits” (Pfizer Inc., priority 1999, dated 2005)
